Laboratory results published in ChEMBL document CHEMBL2331386, “Design, synthesis and SAR of piperidyl-oxadiazoles as 11β-hydroxysteroid dehydrogenase 1 inhibitors” (Eur J Med Chem, 2013).

Columns and labels:
[1] = (§1) Oral bioavailability in rat at 6 mg/kg; type: ADME, organism-based; conditions: in vivo
[2] = Half life in rat at 6 mg/kg, po; type: ADME, organism-based; design: dose 6 mg/kg, route oral; conditions: in vivo
[3] = (§2) AUC (0 to t) in rat at 6 mg/kg, po; type: ADME, organism-based, Plasma; design: dose 6 mg/kg, route oral; conditions: plasma
[4] = (§3) Clearance in rat at 3 mg/kg, iv; type: ADME, organism-based; design: dose 3 mg/kg, route intravenous; conditions: in vivo
[5] = target: T1, CYP1A2 (Homo sapiens, UniProt P05177); test: Inhibition of CYP1A2 in human microsomes using phenacetin as substrate at 10 uM after 5 mins; type: ADME, Microsome; conditions: probe phenacetin
T1 sequence (P05177 whole entry): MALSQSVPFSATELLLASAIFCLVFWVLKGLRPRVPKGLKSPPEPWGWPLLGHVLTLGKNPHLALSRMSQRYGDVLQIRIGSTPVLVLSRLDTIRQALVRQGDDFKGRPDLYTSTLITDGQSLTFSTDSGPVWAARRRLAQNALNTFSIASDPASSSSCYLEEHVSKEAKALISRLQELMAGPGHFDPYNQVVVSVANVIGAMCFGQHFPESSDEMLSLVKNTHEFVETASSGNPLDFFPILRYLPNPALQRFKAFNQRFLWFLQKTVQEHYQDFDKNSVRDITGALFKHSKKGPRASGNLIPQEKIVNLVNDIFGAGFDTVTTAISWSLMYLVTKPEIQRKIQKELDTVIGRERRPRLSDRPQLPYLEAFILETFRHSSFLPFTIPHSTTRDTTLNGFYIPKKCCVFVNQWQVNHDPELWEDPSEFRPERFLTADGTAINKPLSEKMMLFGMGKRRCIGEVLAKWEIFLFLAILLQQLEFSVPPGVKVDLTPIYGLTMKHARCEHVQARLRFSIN

[6] = target: CYP2D6 (Homo sapiens, UniProt P10635); test: Inhibition of CYP2D6 in human microsomes using dextrpmethorphan as substrate at 10 uM after 5 mins; type: ADME, Microsome; conditions: probe dextromethorphan (printed: dextrpmethorphan)
Sequence of CYP2D6 (P10635 whole entry): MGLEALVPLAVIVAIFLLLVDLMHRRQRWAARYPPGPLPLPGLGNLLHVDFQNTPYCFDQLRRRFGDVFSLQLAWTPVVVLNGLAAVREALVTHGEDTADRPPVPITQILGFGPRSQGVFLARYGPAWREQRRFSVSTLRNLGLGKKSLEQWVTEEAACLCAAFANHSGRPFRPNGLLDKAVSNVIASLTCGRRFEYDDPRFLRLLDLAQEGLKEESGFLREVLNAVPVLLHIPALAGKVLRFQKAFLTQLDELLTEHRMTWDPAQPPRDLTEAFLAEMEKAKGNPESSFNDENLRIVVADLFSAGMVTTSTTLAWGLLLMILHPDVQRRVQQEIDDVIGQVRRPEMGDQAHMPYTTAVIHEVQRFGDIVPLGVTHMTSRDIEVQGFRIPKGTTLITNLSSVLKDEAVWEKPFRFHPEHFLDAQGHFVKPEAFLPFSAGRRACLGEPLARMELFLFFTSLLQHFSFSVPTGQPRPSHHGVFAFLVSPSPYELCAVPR

[7] = target: CYP3A4 (Homo sapiens, UniProt P08684); test: Inhibition of CYP3A4 in human microsomes using midazolam as substrate at 10 uM after 5 mins; type: ADME, Microsome; conditions: probe midazolam
Sequence of CYP3A4 (P08684 whole entry): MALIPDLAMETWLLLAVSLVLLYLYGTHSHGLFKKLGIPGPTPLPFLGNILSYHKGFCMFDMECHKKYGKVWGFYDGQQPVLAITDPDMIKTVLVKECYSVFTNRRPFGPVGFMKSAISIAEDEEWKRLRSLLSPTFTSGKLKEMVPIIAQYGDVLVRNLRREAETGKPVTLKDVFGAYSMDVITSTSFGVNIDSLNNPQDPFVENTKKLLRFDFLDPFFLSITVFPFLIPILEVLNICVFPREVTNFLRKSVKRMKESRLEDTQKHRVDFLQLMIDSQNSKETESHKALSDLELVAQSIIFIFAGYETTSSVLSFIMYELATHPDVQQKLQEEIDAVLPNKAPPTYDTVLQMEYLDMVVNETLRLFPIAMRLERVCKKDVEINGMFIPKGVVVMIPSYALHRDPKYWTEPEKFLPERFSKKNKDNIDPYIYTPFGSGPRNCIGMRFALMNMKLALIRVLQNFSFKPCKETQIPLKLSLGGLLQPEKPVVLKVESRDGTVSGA

[8] = Intrinsic clearance in human liver microsomes at 1 uM preincubated for 5 mins measured per mg protein by LC/MS/MS analysis; type: ADME, Microsome; conditions: read-out: CLH
[9] = target: 11-beta-hydroxysteroid dehydrogenase 1 (Homo sapiens, UniProt P28845); test: Inhibition of human 11-beta HSD1 transfected in HEK293 cell microsomes assessed as decrease in [3H]cortisol generation using [3H]cortisone as substrate measured after 60 mins by scintillation proximity assay; design: species or system Microsome
Sequence of 11-beta-hydroxysteroid dehydrogenase 1 (P28845 whole entry): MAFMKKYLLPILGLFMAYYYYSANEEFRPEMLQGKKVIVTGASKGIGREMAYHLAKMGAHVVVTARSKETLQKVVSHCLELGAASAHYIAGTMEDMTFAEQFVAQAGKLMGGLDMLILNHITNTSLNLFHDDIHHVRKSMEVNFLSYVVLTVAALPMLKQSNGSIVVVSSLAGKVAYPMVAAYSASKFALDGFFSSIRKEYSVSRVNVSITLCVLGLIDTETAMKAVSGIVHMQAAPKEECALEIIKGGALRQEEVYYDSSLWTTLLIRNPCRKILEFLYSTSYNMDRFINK

[10] = tested on: Rattus norvegicus; test: as §1; type: ADME, organism-based; conditions: in vivo
[11] = tested on: Rattus norvegicus; test: as §2; type: ADME, organism-based, Plasma; design: dose 6 mg/kg, route oral; conditions: in vivo
[12] = tested on: Rattus norvegicus; test: as §3; type: ADME, organism-based; design: dose 3 mg/kg, route intravenous; conditions: in vivo

| Structure (SMILES) | IC50 [9] | other results |
| --- | --- | --- |
| Cc1c(Cl)cccc1S(=O)(=O)N1CCC[C@H](C(=O)NC2CCCCC2)C1 | 0.8 nM | bioavailability [1]: 8%; half-life [2]: 0.4 h; AUC(0-t) [3]: 0.188 µM·h; clearance [4]: 130 mL/min/kg; inhibition at 5 min, 10 µM [5]: 16%; inhibition at 5 min, 10 µM [6]: 34%; inhibition at 5 min, 10 µM [7]: 73%; microsomal CLint at 1 µM [8]: 209 µL/min/mg |
| Cc1c(Cl)cccc1C(=O)N1CCC[C@H](c2nc(-c3ccc(Br)cc3)no2)C1 | > 1000 nM |  |
| Cc1c(Cl)cccc1C(=O)N1CCC[C@H](c2nc(-c3cccc(Br)c3)no2)C1 | 310 nM |  |
| Cc1c(Cl)cccc1C(=O)N1CCC[C@H](c2nc(-c3ccccc3Br)no2)C1 | 825 nM |  |
| Cc1c(Cl)cccc1C(=O)N1CCC[C@H](c2nc(-c3ccccc3Cl)no2)C1 | 277 nM |  |
| Cc1c(Cl)cccc1C(=O)N1CCC[C@H](c2nc(-c3cccs3)no2)C1 | > 1000 nM |  |
| Cc1c(Cl)cccc1C(=O)N1CCC[C@H](c2nc(-c3ccc(F)cc3)no2)C1 | 956 nM |  |
| Cc1c(Cl)cccc1C(=O)N1CCC[C@H](c2nc(C3CCCCC3)no2)C1 | 621 nM |  |
| Cc1c(Cl)cccc1C(=O)N1CCC[C@H](c2nc(C34CC5CC(CC(C5)C3)C4)no2)C1 | > 1000 nM |  |
| CC1(C)C(C(=O)N2CCC[C@H](c3nc(-c4ccccc4)no3)C2)C1(C)C | 793 nM |  |
| O=C(C1CC1)N1CCC[C@H](c2nc(-c3ccccc3)no2)C1 | 92 nM |  |
| O=C(C1CCC1)N1CCC[C@H](c2nc(-c3ccccc3)no2)C1 | 326 nM |  |
| O=C(C1CCCCC1)N1CCC[C@H](c2nc(-c3ccccc3)no2)C1 | 71 nM | F [10]: 36%; half-life [2]: 1.3 h; AUCt [11]: 25.3 µM·min; CL [12]: 24 mL/min/kg; inhibition at 5 min, 10 µM [5]: 16%; inhibition at 5 min, 10 µM [6]: 12%; inhibition at 5 min, 10 µM [7]: 7.7%; microsomal CLint at 1 µM [8]: 44 µL/min/mg |
| O=C(C1CCCCCC1)N1CCC[C@H](c2nc(-c3ccccc3)no2)C1 | 1480 nM |  |
| Cn1ccc2c(C(=O)N3CCC[C@H](c4nc(-c5ccccc5)no4)C3)cccc21 | 141 nM |  |
| Cn1cccc1C(=O)N1CCC[C@H](c2nc(-c3ccccc3)no2)C1 | 715 nM |  |
| O=C(c1ccco1)N1CCC[C@H](c2nc(-c3ccccc3)no2)C1 | 659 nM |  |
| Cc1c(Br)cccc1C(=O)N1CCC[C@H](c2nc(-c3ccccc3)no2)C1 | 3.3 nM | F [10]: 25%; half-life [2]: 2.1 h; AUCt [11]: 34.1 µM·min; CL [12]: 16 mL/min/kg; inhibition at 5 min, 10 µM [5]: 0%; inhibition at 5 min, 10 µM [6]: 0%; inhibition at 5 min, 10 µM [7]: 22%; microsomal CLint at 1 µM [8]: 63 µL/min/mg |
| Cc1cccc(C(=O)N2CCC[C@H](c3nc(-c4ccccc4)no3)C2)c1Cl | 28 nM |  |
| O=C(c1ccc(Cl)cc1)N1CCC[C@H](c2nc(-c3ccccc3)no2)C1 | 277 nM |  |
| O=C(c1cccc(Cl)c1)N1CCC[C@H](c2nc(-c3ccccc3)no2)C1 | 741 nM |  |
| O=C(c1ccccc1Cl)N1CCC[C@H](c2nc(-c3ccccc3)no2)C1 | 853 nM |  |
| Cc1ccccc1C(=O)N1CCC[C@H](c2nc(-c3ccccc3)no2)C1 | 435 nM |  |
| O=C(c1ccccc1)N1CCC[C@H](c2nc(-c3ccccc3)no2)C1 | 2370 nM |  |
| Cc1c(Cl)cccc1C(=O)N1CCC[C@H](c2noc(-c3ccccc3)n2)C1 | 107 nM |  |
| Cc1c(Cl)cccc1C(=O)N1CCC[C@H](c2nc(-c3ccccc3)no2)C1 | 27 nM |  |
| Cc1c(Cl)cccc1C(=O)N1CCC[C@H](n2nnc(-c3ccccc3)n2)C1 | 594 nM |  |
| Cc1c(Cl)cccc1C(=O)N1CCC[C@H](c2nnc(-c3ccccc3)[nH]2)C1 | 945 nM |  |
| Cc1c(Cl)cccc1C(=O)N1CCC[C@H](c2nnc(-c3ccccc3)o2)C1 | 1320 nM |  |
